Measured values published in patent US20150359884A1, “MULTI-PHOTON ISOMERISATION OF COMBRETASTATINS AND THEIR USE IN THERAPY” (priority 2011, published 2015).

Assays:
cells = conditions: typical toxicity assays; cited from earlier work
[1] = Picosecond time-resolved infrared (TRIR) spectroscopy of excited states; format: physicochemical
Procedure: The ultrafast time-resolved infrared (TRIR) experiments were performed on the ‘ULTRA’ laser system at the Science and Technology Facilities Council Rutherford Appleton Laboratory. The capabilities of the ULTRA instrument are described in detail elsewhere. Briefly, a chirped pulse amplified titanium:sapphire laser operating at 10 kHz repetition rate produced 40-80 fs duration pulses at a wavelength of 800 nm. The UV excitation pulse was generated from third harmonic generation of the 800 nm output of the amplifier with ˜50 fs duration at 266 nm, irradiating samples with a 1 μJ, 100 μm diameter beam. The mid-IR probe pulse was generated using ˜0.4 mJ of the 800 nm femtosecond output to pump an optical parametric amplifier, and difference frequency mixing of the signal and idler components. The mid-IR probe output pulses had ˜500 cm-1 bandwidth and ˜50 fs pulse duration. The UV pulses were polarized at a magic angle to the IR probe laser polarization. The timing between the pump and probe was performed using a PCcontrolled optical delay line. The sample in solution was placed between two 25 mm diameter CaF2 plates in a rasterscanned Harrick cell to limit irradiation of the sample by multiple pulses. The optical path of the sample between the two windows was controlled using a 100 μm PTFE spacer and the solution flowed using a peristaltic pump. The intensity of the transmitted mid-IR light was dispersed by a grating onto a pair of 128-element mercury-cadmium telluride array detectors (IR Associates), providing full (i.e. ˜500 cm-1) spectral coverage with every laser pulse. The overall instrument response time was ˜200 fs. A reference spectrum of the laser pulse (before the Harrick cell) was accumulated on a third, 64-element array detector and was used to remove the effects of laser fluctuations from the transient absorption data. Ground-state FTIR spectra were recorded using a Nicolet Avatar 360 spectrometer.
FIGS. 12 and 13 show the TRIR spectra of both isomers of CA4 following ultrafast electronic excitation using 266 nm, with the ground-state FTIR spectra shown beneath the time resolved data for comparison. To date there has been little characterization of combretastatins by infrared spectroscopy. However, the ground-state FTIR spectra have obvious similarities with stilbene and on this basis we assign the 1586/1581 and 1510/1509 cm-1 bands in E-CA4/Z-CA4 to the v8a ring stretches of the phenyl groups and v19a ring stretch with additional contributions from C—H in-plane bending. In the excited state spectra, there are negative absorption bands corresponding to bleaching of the ground-state absorptions and both the E- and Z-isomers are dominated by transient bands between 1350 and 1500 cm-1. At early times the transient bands show rapid shifting over about 10 cm-1 to higher wavenumbers associated with rapid ‘cooling’ of excess vibrational energy following electronic excitation as commonly observed in other molecular systems including DNA [26] and for the C═C stretching band of E-stilbene observed by time-resolved resonance Raman spectroscopy. It is also notable that for E-CA4 at pump-probe delays up to 20 ps, the intensities of the transient bands increase and this is most likely due to molecular rearrangements taking place lowering the overall symmetry of the molecule and increasing the cross-sections of these IR active modes. […]

[2] = Fluorescence lifetimes in solvents, two-photon excitation with TCSPC; format: physicochemical; conditions: for Fluorescence lifetime τ: 20° C., two-photon excitation 620-630 nm
Procedure: Fluorescence lifetimes were determined using 2PE at 630 nm with the microscope TCSPC setup (overall time response of 25 ps fwhm) and produced the results shown in Table 1. […] Characterisation of the spectroscopic properties of these latter two compounds remains to be investigated further. […] In the very viscous environment provided by glycerol the lifetime increases further to 1180 ps. In the range of alkanols studied the lifetime is closely correlated with solvent viscosity as shown in the inset to FIG. 3. […] However it is clear that the measured lifetime has the potential to report on cellular environments in FLIM studies. For E-CA4F similar trends are observed, but the overall differences in both lifetimes and quantum yields over the range of solvents are rather less than for E-CA4. The fluorescence lifetimes of E-CA4F are confined to a narrower range having values ranging from 440 ps in methanol through 740 ps in hexane to 1070 ps in glycerol. The more pronounced solvent dependence for E-CA4 no doubt reflects the more polar nature of the molecule compared with E-CA4F. The relative polarities may be judged from the partition coefficients (P) calculated according to the method of Brown et al..

[3] = dichloromethane, 266 nm excitation

COc1ccc(/C=C/c2cc(OC)c(OC)c(OC)c2)cc1O [E-CA4, (E)-1-(3′,4′,5′-Trimethoxyphenyl)-2-(4″-methoxy-3″-hydroxy-phenyl)ethene]
Concentrations required to kill cells (cells): micromolar | Excited state decay, longer lifetime (relaxed excited state) [1, 3]: 503±56 ps | Excited state decay, shorter lifetime (biexponential fit) [1, 3]: 6.5±0.46 ps | Lifetime of the relaxed excited state measured by TRIR ([1]; methanol): 230±14 ps | Fluorescence lifetime τ ([2]; DCM, ne = non-exponential): 0.50 ns | Fluorescence lifetime τ ([2]; DMSO): 0.49 ns | Fluorescence lifetime τ ([2]; EtOH, ne = non-exponential): 0.28 ns | Fluorescence lifetime τ ([2]; Ethylene glycol, ne = non-exponential): 0.58 ns | Fluorescence lifetime τ ([2]; Glycerol, ne = non-exponential): 1.18 ns | Fluorescence lifetime τ ([2]; Hexane): 0.86 ns | Fluorescence lifetime τ ([2]; MeCN, ne = non-exponential): 0.29 ns | Fluorescence lifetime τ ([2]; MeOH, ne = non-exponential): 0.23 ns | Fluorescence lifetime ([2]; acetonitrile): around 220 ps | Fluorescence lifetime ([2]; as shown in FIG. 10, compared with TRIR in dichloromethane): 500 ps | Fluorescence lifetime ([2]; glycerol): 1180 ps | Fluorescence lifetime ([2]; hexane): 855 ps
